Results reported in the supplement of paper PMC10307832.

Columns and labels:
Experiment in all cases: relative viability (nuclei count vs DMSO), 5 days (fraction); higher = more cells survive
[1] = compound: COc1cc2/c(=N/c3ccc(Br)cc3F)nc[nH]c2cc1OCC1CCN(C)CC1 [Vandetanib] + O=C(CCCCCCC(=O)Nc1ccccc1)NO [Vorinostat] (partner 1 µM)
Outline: (§1)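 Relative viability was taken as the ratio of nuclei in treated wells to nuclei in vehicle wells. Lung cancer cell lines in 1536-well plates received compounds by pin tool one day after seeding, either one drug alone or a fixed anchor-drug dose plus five library-drug doses (not always all listed) in √10 steps. Nuclei were counted on 4× images after 5 days of treatment, and values are medians of duplicate plates.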

[2] = compound: COc1cc(N2CCC(N3CCN(C)CC3)CC2)ccc1Nc1ncc(Cl)c(Nc2ccccc2S(=O)(=O)C(C)C)n1 [NVP-TAE684] + Nc1nc2[nH]cc(CCc3ccc(C(=O)N[C@@H](CCC(=O)O)C(=O)O)cc3)c2c(=O)[nH]1 [Pemetrexed] (partner 0.2 µM)
Outline: as §1

[3] = compound: C#Cc1cccc(Nc2ncnc3cc(OC)c(OCCCCCCC(=O)NO)cc23)c1 [CUDC-101]
Outline: (§2)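 Following overnight incubation at 37 °C, lung cancer cell lines in 1536-well plates were pinned with five library-drug doses (not always all listed) in √10 steps on vehicle-anchored plates. The cells then spent 5 days without medium change before a combined fix, permeabilisation and Hoechst stain, 4× imaging and MetaXpress nuclear counts. Viability is the treated-to-vehicle ratio of nuclei, taken as the median across plates. Only plates with control CV below 25% and at least one doubling passed.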

[4] = compound: C1=CC=C2C(=C1)N=C(S2)C(C#N)C3=NC(=NC=C3)NCCC4=CN=CC=C4
Outline: as §2

Cell Line	relative viability ([1]; first compound 0.02 µM)	relative viability ([1]; first compound 0.06325 µM)	relative viability ([1]; first compound 0.2 µM)	relative viability ([1]; first compound 0.6325 µM)	relative viability ([1]; first compound 2 µM)	relative viability ([2]; first compound 0.2 µM)	relative viability ([2]; first compound 0.6325 µM)	relative viability ([2]; first compound 2 µM)	relative viability ([3]; 0.01 µM)	relative viability ([3]; 0.03162 µM)	relative viability ([3]; 0.1 µM)	relative viability ([3]; 0.3162 µM)	relative viability ([3]; 1 µM)	relative viability ([4]; 0.005 µM)	relative viability ([4]; 0.01581 µM)	relative viability ([4]; 0.05 µM)	relative viability ([4]; 0.1581 µM)	relative viability ([4]; 0.5 µM)
LOU-NH91	0.942	0.806	0.559	0.883	0.886	0.364	0.349	0.437	1.06	0.846	0.932	0.872	0.646	0.954	0.875	0.815	1.02	0.916
LU99A	0.474	0.377	0.499	0.49	0.528	0.192	0.147	0.194	1.07	0.877	0.808	0.9	0.58	0.779	0.995	0.877	1.04	0.972
LXF-289	0.806	0.766	0.768	0.848	0.708	0.874	0.983	0.805	1.01	1.03	0.997	0.971	0.908	0.925	1.09	0.968	1.06	0.948
NCI-H23	0.55	0.585	0.517	0.608	0.598	0.719	0.556	0.395	1.13	1	1.1	1.11	0.922	0.691	0.941	0.967	1.24	1.02
NCI-H322M	0.867	0.853	0.874	0.761	0.583	0.635	0.593	0.479	0.889	0.846	0.768	0.739	0.474	0.745	0.839	0.924	0.951	0.914
NCI-H358	0.61	0.594	0.668	0.68	0.257	0.166	0.151	0.13	1.04	0.873	0.91	0.804	0.63	0.784	0.904	0.823	1.06	0.913
NCI-H441	0.781	0.702	0.8	0.767	0.821	0.271	0.29	0.223	1.04	1.09	0.981	1.13	0.844	–	1.12	1	1.27	0.871
NCI-H460	0.632	0.674	0.685	0.654	0.674	0.0526	0.0587	0.0483	1	0.902	0.977	1.01	0.996	0.925	0.999	0.995	1.14	0.934
NCI-H520	0.7	0.706	0.739	0.677	0.639	0.694	0.823	0.326	0.997	0.914	0.982	1.02	0.686	0.847	0.973	0.953	0.968	0.96
NCI-H522	0.947	0.962	0.85	0.874	0.936	1.13	1.07	0.799	0.879	1.09	1.01	0.979	0.743	0.958	0.795	0.761	1.11	0.878
NCI-H596	1.37	0.562	0.657	0.666	0.693	0.56	0.43	0.45	0.97	1.01	1.04	1.05	0.88	0.791	0.962	1.01	1.07	0.928
NCI-H647	0.514	0.569	0.684	0.715	0.432	0.18	0.148	0.106	1.08	0.899	1.04	0.987	0.801	0.814	0.997	0.927	1.16	0.893
NCI-H650	0.585	0.533	0.514	0.544	0.341	0.901	0.939	0.757	1.13	1.02	1.14	0.98	0.849	0.86	0.782	1.04	1.14	1.02
NCI-H661	0.736	0.798	0.783	0.867	0.915	0.959	0.924	0.894	1.01	0.907	1.02	0.945	0.637	1.05	1.02	0.941	0.998	1.02
NCI-H838	0.731	0.679	0.772	0.78	0.68	0.25	0.239	0.17	0.988	0.922	0.992	1.02	0.871	0.902	0.954	0.968	1.1	0.953
NCI-H1355	0.603	0.565	0.671	0.624	0.649	1.01	0.984	0.793	1.03	0.957	0.967	0.976	0.883	0.934	0.931	0.986	1.1	0.912
NCI-H1395	0.622	0.881	0.495	0.63	0.596	0.971	0.831	0.823	1.05	0.883	0.952	0.974	0.648	0.876	–	0.922	1.11	0.995
NCI-H1437	0.824	0.819	0.866	0.937	0.995	0.354	0.327	0.243	0.994	0.985	1.01	1.06	0.981	0.901	0.947	0.988	1.1	0.966
NCI-H1648	0.473	0.506	0.596	0.375	0.627	–	–	0.415	1.15	0.59	0.758	0.741	0.376	0.704	0.812	0.764	1.19	0.75
NCI-H1650	0.525	0.502	0.599	0.544	0.452	0.382	0.35	0.353	0.895	0.764	0.818	0.799	0.587	0.89	0.816	0.922	1	0.774
NCI-H1651	0.53	0.618	0.62	0.535	0.593	0.594	0.566	0.565	1.05	0.984	0.991	1.08	0.932	0.884	1.02	1.14	1.07	0.984
NCI-H1666	1.06	0.968	1.09	0.964	0.993	0.985	0.796	0.77	1.04	0.92	0.992	1.05	0.858	1.09	0.988	1.04	1.01	0.99
NCI-H1734	0.87	0.71	0.755	0.852	0.815	0.47	0.437	0.348	1.01	0.942	1.05	0.95	0.703	0.787	0.91	0.963	1.14	0.871
NCI-H1755	0.768	0.818	0.773	0.709	0.709	0.394	0.583	0.384	0.998	0.987	1.02	1.04	0.98	1.03	1.15	0.985	1.09	0.99
NCI-H1793	0.716	0.618	0.651	0.648	0.624	0.929	0.651	0.779	0.95	0.707	0.825	0.92	0.613	0.716	0.906	0.852	1.05	0.925
NCI-H1915	0.497	0.512	0.535	0.532	0.505	0.537	0.463	0.472	0.981	1.03	0.956	0.936	0.793	0.925	1.03	0.969	1.1	0.94
NCI-H1944	0.51	0.542	0.526	0.476	0.602	0.705	0.585	0.631	0.981	0.884	0.899	0.817	0.574	0.914	0.956	0.958	1.03	0.951
NCI-H1975	0.71	0.646	0.709	0.665	0.636	0.297	0.283	0.236	0.996	0.917	0.934	1.03	0.91	0.858	0.912	1.01	1.1	0.653
NCI-H1993	–	0.741	0.797	0.639	0.566	0.518	0.555	0.436	1.04	0.916	0.833	0.95	0.664	0.901	0.882	0.929	1.04	0.842
